# According to patent US20220340598A1, “PYRAZOLOPYRIDINONE COMPOUNDS” (Janssen Pharmaceutica NV, priority 2017, published 2022):
# Where a name gives a salt, the structure may show the parent alone.
# Assays:
# [1] = target: T1, NIH/3T3 cells overexpressing FGFR3 WT-TACC3 fusion protein (Homo sapiens, UniProt P22607); test: NIH/3T3 FGFR3 WT-TACC3 cell proliferation assay; format: cell-based; conditions: 72-hr incubation, CellTiter Glo; read-out: NIH/3T3 FGFR3 WT-TACC3 CTG (IC50)
# T1 construct: fused on or other part: Q9Y6A5 (Transforming acidic coiled-coil-containing protein 3)
# T1 sequence (P22607 whole entry, change not shown, the tested form may be a part): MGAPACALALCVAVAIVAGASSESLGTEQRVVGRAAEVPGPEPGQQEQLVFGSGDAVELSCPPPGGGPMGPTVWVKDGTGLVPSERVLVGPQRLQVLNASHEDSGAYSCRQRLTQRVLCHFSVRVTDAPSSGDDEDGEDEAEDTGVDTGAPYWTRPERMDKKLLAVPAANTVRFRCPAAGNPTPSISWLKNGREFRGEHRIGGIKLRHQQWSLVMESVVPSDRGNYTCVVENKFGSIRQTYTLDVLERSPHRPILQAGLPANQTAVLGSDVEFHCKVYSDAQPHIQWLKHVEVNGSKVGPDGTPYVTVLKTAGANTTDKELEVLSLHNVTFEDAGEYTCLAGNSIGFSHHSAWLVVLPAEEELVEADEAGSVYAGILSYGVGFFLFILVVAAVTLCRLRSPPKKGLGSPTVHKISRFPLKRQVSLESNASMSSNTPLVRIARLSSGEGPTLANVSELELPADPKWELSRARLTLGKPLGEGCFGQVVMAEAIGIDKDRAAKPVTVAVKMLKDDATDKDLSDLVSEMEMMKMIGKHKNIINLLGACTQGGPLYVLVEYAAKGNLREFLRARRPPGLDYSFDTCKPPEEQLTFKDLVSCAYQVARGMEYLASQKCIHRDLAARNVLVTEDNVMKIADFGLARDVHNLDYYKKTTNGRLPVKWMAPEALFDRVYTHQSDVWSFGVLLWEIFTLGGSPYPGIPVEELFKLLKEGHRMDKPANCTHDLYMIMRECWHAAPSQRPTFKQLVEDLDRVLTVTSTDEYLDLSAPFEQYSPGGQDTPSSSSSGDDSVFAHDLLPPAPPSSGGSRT
# Description: NIH/3T3 FGFR3 WT-TACC3 Cell Proliferation Assay
# (§1) In day 1, 90 μL of cell suspension (NIH/3T3 cells overexpressing FGFR3 WT-TACC3 fusion protein) (total 30,000 cells per well in growth medium (DMEM containing 1% Glutamax, 10% FBS and 1% Pen/Strep)) was seeded in a 96-well plate and then incubated overnight at 37° C. and 5% CO2. In day 2, 10 μL of growth medium containing 10-fold stock solution of testing compound was added into cell cultures (9 dose points with 4× serial dilution, starting with 10 μM, 0.1% DMSO final). After 72-hr incubation at 37° C. and 5% CO2, in day 5 a volume of 50 μL CellTiter Glo (CTG) reagent was added into cell-containing 96-well plate and the plate was incubated at room temperature for 10 minutes before RLUs (relative light unit) were measured on a microplate reader with luminescence detection module. The RLU value was normalized to survival % and concentration-response curve was plotted using Prism to calculate IC50 (M), pIC50 (−log IC50) and HillSlope value.
# [2] = target: T2, NIH/3T3 cells overexpressing FGFR3 V555M-TACC3 fusion protein (Homo sapiens, UniProt P22607, V555M, cells depend on it); test: NIH/3T3 FGFR3 V555M-TACC3 cell proliferation assay; format: cell-based; conditions: 72-hr incubation, CellTiter Glo; read-out: NIH/3T3 FGFR3 V555M-TACC3 CTG (IC50)
# T2 construct: fused on or other part: Q9Y6A5 (Transforming acidic coiled-coil-containing protein 3)
# T2 sequence (P22607 whole entry V555M, the tested form may be a part): as the sequence (P22607 whole entry, change not shown, the tested form may be a part) above, with V555M counted along it
# Description: NIH/3T3 FGFR3 V555M-TACC3 Cell Proliferation Assay
# as §1, with “V555M-TACC3” for “WT-TACC3”
compound,measurement,setting,value
"CCn1cc2[nH]c(=O)c(-c3nc4c(F)c(OC)c(OC)cc4[nH]3)c(N[C@@H](C)c3ncccn3)c2n1 [Compound 41, (S)-2-ethyl-6-(4-fluoro-5,6-dimethoxy-1H-benzo[d]imidazol-2-yl)-7-((1-(pyrimidin-2-yl)ethyl)amino)-2H-pyrazolo[4,3-b]pyridin-5(4H)-one]",GI50,[1],46.5 nM
same,GI50,[2],55.6 nM
"CCOc1cc2nc(-c3c(N[C@@H](C)c4ncccn4)c4nn(C)cc4[nH]c3=O)[nH]c2cc1OCC [Compound 53, (S)-6-(5,6-diethoxy-1H-benzo[d]imidazol-2-yl)-2-methyl-7-((1-(pyrimidin-2-yl)ethyl)amino)-2,4-dihydro-5H-pyrazolo[4,3-b]pyridin-5-one]",GI50,[1],3.19 nM
same,GI50,[2],4.15 nM
"CC[C@H](Nc1c(-c2nc3cnc(N(C)C)cc3[nH]2)c(=O)[nH]c2cn(C)nc12)c1ncccn1 [Compound 22, (S)-6-(6-(dimethylamino)-1H-imidazo[4,5-c]pyridin-2-yl)-2-methyl-7-((1-(pyrimidin-2-yl)propyl)amino)-2H-pyrazolo[4,3-b]pyridin-5(4H)-one]",GI50,[1],24.4 nM
same,GI50,[2],24.6 nM
"COc1cnc2nc(-c3c(N[C@@H](C)c4ncccn4)c4nn(C)cc4[nH]c3=O)[nH]c2c1 [Compound 3, (S)-6-(6-methoxy-1H-imidazo[4,5-b]pyridin-2-yl)-2-methyl-7-((1-(pyrimidin-2-yl)ethyl)amino)-2H-pyrazolo[4,3-b]pyridin-5(4H)-one]",GI50,[1],23.4 nM
same,GI50,[2],32.6 nM
"COCC(Nc1c(-c2nc3ccc(OC)cc3[nH]2)c(=O)[nH]c2cn(C)nc12)c1ncccn1 (single isomer, unassigned) [Compound 12, (S*)-7-((2-methoxy-1-(pyrimidin-2-yl)ethyl)amino)-6-(6-methoxy-1H-benzo[d]imidazol-2-yl)-2-methyl-2H-pyrazolo[4,3-b]pyridin-5(4H)-one]",GI50,[1],106 nM
same,GI50,[2],109 nM
"CCn1cc2[nH]c(=O)c(-c3nc4cc(OC)c(OC)cc4[nH]3)c(N[C@@H](C)c3ccccn3)c2n1 [Compound 51, (S)-6-(5,6-dimethoxy-1H-benzo[d]imidazol-2-yl)-2-ethyl-7-((1-(pyridin-2-yl)ethyl)amino)-2,4-dihydro-5H-pyrazolo[4,3-b]pyridin-5-one]",GI50,[2],31.1 nM
"COc1cc2[nH]c(-c3c(NC(c4ncccn4)C(C)C)c4nn(C)cc4[nH]c3=O)nc2cn1 (single isomer, unassigned) [Compound 18, (S*)-6-(6-methoxy-1H-imidazo[4,5-c]pyridin-2-yl)-2-methyl-7-((2-methyl-1-(pyrimidin-2-yl)propyl)amino)-2H-pyrazolo[4,3-b]pyridin-5(4H)-one]",GI50,[1],71.9 nM
same,GI50,[2],51.5 nM
"COc1cc(F)c2nc(-c3c(N[C@@H](C)c4ncccn4)c4nn(C)cc4[nH]c3=O)[nH]c2c1 [Compound 2, (S)-6-(4-fluoro-6-methoxy-1H-benzo[d]imidazol-2-yl)-2-methyl-7-((1-(pyrimidin-2-yl)-ethyl)amino)-2H-pyrazolo[4,3-b]pyridin-5(4H)-one]",GI50,[1],18 nM
same,GI50,[2],16.1 nM
"(S)-6-(5,6-Dimethoxy-1H-benzo[d]imidazol-2-yl)-2-ethyl-7-((1-(pyrimidin-2-yl)ethyl)-amino)-2H-pyrazolo[4,3-b]pyridin-5(4H)-one [Compound 6]",GI50,[2],29.6 nM
"CC(C)[C@H](Nc1c(-c2nc3ncc(N(C)C)cc3[nH]2)c(=O)[nH]c2cn(C)nc12)c1ncccn1 (stereo in doubt) [Compound 23, (S*)-6-(6-(dimethylamino)-1H-imidazo[4,5-b]pyridin-2-yl)-2-methyl-7-((2-methyl-1-(pyrimidin-2-yl)propyl)amino)-2H-pyrazolo[4,3-b]pyridin-5(4H)-one 0.14 formate]",GI50,[1],58 nM
same,GI50,[2],37.3 nM
"CCn1cc2[nH]c(=O)c(-c3nc4cc(OC)c(OC)cc4[nH]3)c(N[C@@H](C)c3ncccn3)c2n1 [Compound 37, (S)-6-(5,6-dimethoxy-1H-benzo[d]imidazol-2-yl)-2-ethyl-7-((1-(pyrimidin-2-yl)ethyl)amino)-2H-pyrazolo[4,3-b]pyridin-5(4H)-one]",GI50,[1],16.8 nM
same,GI50,[2],29.6 nM
"CCC(Nc1c(-c2nc3ccc(OC)cc3[nH]2)c(=O)[nH]c2cn(C)nc12)c1ncccn1 (single isomer, unassigned) [Compound 17, (R*)-6(6-Methoxy-1H-benzo[d]imidazol-2-yl)-2-methyl-7-((1-(pyrimidin-2-yl)propyl)amino)-2H-pyrazolo[4,3-b]pyridin-5(4H)-one]",GI50,[1],27.6 nM
same,GI50,[2],23.9 nM
"COc1cc2[nH]c(-c3c(N[C@@H](C)c4ncccn4)c4nn(C)cc4[nH]c3=O)nc2c(F)c1OC [Compound 55, (S)-6-(4-fluoro-5,6-dimethoxy-1H-benzo[d]imidazol-2-yl)-2-methyl-7-((1-(pyrimidin-2-yl)ethyl)amino)-2H-pyrazolo[4,3-b]pyridin-5(4H)-one]",GI50,[1],17400 nM
same,GI50,[2],11.8 nM
"COc1cc2nc(-c3c(NC(c4ncccn4)C4CC4)c4nn(C)cc4[nH]c3=O)[nH]c2cc1OC (single isomer, unassigned) [Compound 46, (S*)-7-((cyclopropyl(pyrimidin-2-yl)methyl)amino)-6-(5,6-dimethoxy-1H-benzo[d]imidazol-2-yl)-2-methyl-2H-pyrazolo[4,3-b]pyridin-5(4H)-one]",GI50,[1],22.7 nM
same,GI50,[2],27.6 nM
"CCn1cc2[nH]c(=O)c(-c3nc4c(OC)cccc4[nH]3)c(N[C@@H](C)c3ncccn3)c2n1 [Compound 32, (S)-2-ethyl-6-(4-methoxy-1H-benzo[d]imidazol-2-yl)-7-((1-(pyrimidin-2-yl)ethyl)amino)-2H-pyrazolo[4,3-b]pyridin-5(4H)-one]",GI50,[1],43.2 nM
same,GI50,[2],69.6 nM
"CCOc1cc2[nH]c(-c3c(N[C@@H](C)c4ncccn4)c4nn(C)cc4[nH]c3=O)nc2cc1OC [Compound 7, (S)-6-(6-ethoxy-5-methoxy-1H-benzo[d]imidazol-2-yl)-2-methyl-7-((1-(pyrimidin-2-yl)ethyl)amino)-2,4-dihydro-5H-pyrazolo[4,3-b]pyridin-5-one]",GI50,[1],6.03 nM
same,GI50,[2],6.37 nM
"CCn1cc2[nH]c(=O)c(-c3nc4cc(OC)c(OCCOC)cc4[nH]3)c(N[C@@H](C)c3ncccn3)c2n1 [Compound 38, (S)-2-ethyl-6-(5-methoxy-6-(2-methoxyethoxy)-1H-benzo[d]imidazol-2-yl)-7-((1-(pyrimidin-2-yl)ethyl)amino)-2H-pyrazolo[4,3-b]pyridin-5(4H)-one]",GI50,[2],37.3 nM
"COc1cc2nc(-c3c(N[C@@H](C)c4ccccn4)c4nn(C)cc4[nH]c3=O)[nH]c2cc1OC [Compound 56, (S)-6-(5,6-dimethoxy-1H-benzo[d]imidazol-2-yl)-2-methyl-7-((1-(pyridin-2-yl)ethyl)amino)-2H-pyrazolo[4,3-b]pyridin-5(4H)-one]",GI50,[1],18.4 nM
same,GI50,[2],13.1 nM
"CCn1cc2[nH]c(=O)c(-c3nc4ccc(OC)cc4[nH]3)c(N[C@@H](C)c3ncccn3)c2n1 [Compound 4, (S)-2-ethyl-6-(6-methoxy-1H-benzo[d]imidazol-2-yl)-7-((1-(pyrimidin-2-yl)ethyl)amino)-2H-pyrazolo[4,3-b]pyridin-5(4H)-one]",GI50,[1],21.9 nM
same,GI50,[2],31.8 nM
"CCOc1ccc2nc(-c3c(N[C@@H](C)c4ncccn4)c4nn(CC)cc4[nH]c3=O)[nH]c2c1 [Compound 50, (S)-6-(6-ethoxy-1H-benzo[d]imidazol-2-yl)-2-ethyl-7-((1-(pyrimidin-2-yl)ethyl)amino)-2,4-dihydro-5H-pyrazolo[4,3-b]pyridin-5-one]",GI50,[1],28.7 nM
same,GI50,[2],40.9 nM
"CCn1cc2[nH]c(=O)c(-c3nc4c(OC)cc(OC)cc4[nH]3)c(N[C@@H](C)c3ncccn3)c2n1 [Compound 31, (S)-6-(4,6-dimethoxy-1H-benzo[d]imidazol-2-yl)-2-ethyl-7-((1-(pyrimidin-2-yl)ethyl)amino)-2H-pyrazolo[4,3-b]pyridin-5(4H)-one]",GI50,[2],64.5 nM
"CCC(Nc1c(-c2nc3cc(OC)c(OC)cc3[nH]2)c(=O)[nH]c2cn(C)nc12)c1ncccn1 (single isomer, unassigned) [Compound 42, (S*)-6-(5,6-dimethoxy-1H-benzo[d]imidazol-2-yl)-2-methyl-7-((1-(pyrimidin-2-yl)propyl)amino)-2H-pyrazolo[4,3-b]pyridin-5(4H)-one]",GI50,[2],18.2 nM
